Patent publication US20120232073A1, “FUSED BICYCLIC PYRIMIDINE DERIVATIVES AND METHODS OF USE THEREOF” (priority 2009, published 2012)

Molecular target: T1, human GPR119 (Homo sapiens, UniProt Q8TDV5)
T1 construct: expressed in transfected cells; host or cells: HEK293
T1 sequence (Q8TDV5 1-335): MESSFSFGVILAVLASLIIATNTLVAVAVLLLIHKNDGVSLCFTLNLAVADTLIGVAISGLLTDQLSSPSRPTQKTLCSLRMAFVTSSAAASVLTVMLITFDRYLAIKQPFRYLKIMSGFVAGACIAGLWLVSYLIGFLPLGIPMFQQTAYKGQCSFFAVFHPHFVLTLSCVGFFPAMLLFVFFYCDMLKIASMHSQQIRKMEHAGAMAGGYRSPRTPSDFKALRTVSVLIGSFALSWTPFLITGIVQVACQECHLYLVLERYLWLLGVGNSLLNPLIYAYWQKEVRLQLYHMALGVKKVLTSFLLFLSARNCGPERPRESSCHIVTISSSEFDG
Assay: cAMP assay (LANCE cAMP kit), activation of GPR119
Assay type: cell-based
Details: HEK293 cells expressing human GPR119; increase in cAMP levels
Method: The ability of illustrative compounds of the invention to activate GPR119 and stimulate increases in cAMP levels was determined using the LANCE™ cAMP kit (Perkin Elmer). HEK293 cells expressing human GPR119 were maintained in culture flasks at 37° C./5% CO2 in DMEM containing 10% fetal bovine serum, 100 U/ml Pen/Strep, and 0.5 mg/ml geneticin. The media was changed to Optimem and cells were incubated overnight at 37° C./5% CO2. The Optimem was then aspirated and the cells were removed from the flasks using room temperature Hank's balanced saline solution (HBSS). The cells were pelleted using centrifugation (1300 rpm, 7 minutes, room temperature), then resuspended in stimulation buffer (HBSS, 0.1% BSA, 5 mM HEPES, 15 μM RO-20) at 2.5×10^6 cells/mL. Alexa Fluor 647-anti cAMP antibody (1:100) was then added to the cell suspension and incubated for 30 minutes. A representative Fused Bicyclic Pyrimidine Derivative (6 μl at 2× concentration) in stimulation buffer containing 2% DMSO were then added to white 384 well Matrix plates. Cell suspension mix (6 μl) was added to each well and incubated with the Fused Bicyclic Pyrimidine Derivative for 30 minutes. A cAMP standard curve was also created in each assay according to the kit protocol. Standard concentrations of cAMP in stimulation buffer (6 μl) were added to white 384 well plates. Subsequently, 6 μl of 1:100 anti-cAMP antibody was added to each well. Following the 30 minute incubation period, 12 μl of detection mix (included in kit) was added to all wells and incubated for 2-3 hours at room temperature. Fluorescence was detected on the plates using an Envision instrument. The level of cAMP in each well is determined by extrapolation from the cAMP standard curve.

How did the EC50 turn out when `CCCc1cnc(N2CC3COCC(C2)C3Oc2ncnc3c2ccn3-c2ccc(S(C)(=O)=O)cc2F)nc1` (stereo not drawn) [Compound 31] was run?
The EC50 was 50 to 100 nM.

Which EC50 does the source give for `CC(C)(C)OC(=O)N1CC2COCC(C1)C2Oc1ncnc2c1CCN2c1ccc(F)cc1F` (stereo not drawn) [Compound 9] here?
Its EC50 is under 50 nM.

`Cc1c(F)ccc(-n2ccc3c(OC4C5COCC4CN(C(=O)OC4(C)CC4)C5)ncnc32)c1F` (stereo not drawn) [Compound 18] was tested. Which EC50 did it give?
Its EC50 is under 50 nM.

With `Cc1c(F)ccc(-n2ccc3c(OC4C5COCC4CN(C(=O)OC(C)(C)C)C5)ncnc32)c1F` (stereo not drawn) [Compound 17] as the molecule, how does the EC50 read?
The EC50 was 50 to 100 nM.

With `CC1(OC(=O)N2CC3COCC(C2)C3Oc2ncnc3c2[nH]c(=O)n3-c2ccc(C#N)cc2F)CC1` (stereo not drawn) [Compound 41] as the molecule, how does the EC50 read?
The EC50 was 500 to 1000 nM.

`CC(C)(C)OC(=O)N1CC2COCC(C1)C2Oc1ncnc2c1ccn2-c1ccc(C#N)cc1F` (stereo not drawn) [Compound 2] was tested. Which EC50 did it give?
Its EC50 is under 50 nM.

With `CCCOC(=O)N1CC2COCC(C1)C2Oc1ncnc2c1ccn2-c1ccc(C#N)cc1F` (stereo not drawn) [Compound 4] as the molecule, how does the EC50 read?
The EC50 was under 50 nM.

Which EC50 does the source give for `Cc1c(F)ccc(-n2ccc3c(OC4C5COCC4CN(C(=O)OC(C)(C)C)C5)ncnc32)c1C#N` (stereo not drawn) [Compound 21] here?
The EC50 was 50 to 100 nM.

For `Cc1c(F)ccc(-n2ccc3c(OC4C5COCC4CN(C(=O)OC4(C)CC4)C5)ncnc32)c1C#N` (stereo not drawn) [Compound 22], which EC50 is on record?
The EC50 was 50 to 100 nM.

How did the EC50 turn out when `CC1(OC(=O)N2CC3COCC(C2)C3Oc2ncnc3c2cnn3-c2ccc(F)cc2F)CC1` (stereo not drawn) [Compound 46] was run?
The EC50 was 100 to 500 nM.

Which EC50 does the source give for `CC1(OC(=O)N2CC3COCC(C2)C3Oc2ncnc3c2CCN3c2ccc(F)cc2F)CC1` (stereo not drawn) [Compound 11] here?
The EC50 was under 50 nM.

`CC1(OC(=O)N2CC3COCC(C2)C3Oc2ncnc3c2ncn3-c2ccc(C#N)cc2Cl)CC1` (stereo not drawn) [Compound 43] was tested. Which EC50 did it give?
The EC50 was 100 to 500 nM.

For `CC(C)(C)OC(=O)N1CC2COCC(C1)C2Oc1ncnc2c1ccn2-c1ccc(F)cc1F` (stereo not drawn) [Compound 7], which EC50 is on record?
Its EC50 is under 50 nM.

`CC1(OC(=O)N2CC3COCC(C2)C3Oc2ncnc3c2cnn3-c2ccc(-c3cscn3)cc2F)CC1` (stereo not drawn) [Compound 50] was tested. Which EC50 did it give?
The EC50 was 100 to 500 nM.

`CC(C)(C)OC(=O)N1CC2COCC(C1)C2Oc1ncnc2c1ccn2-c1c(F)cc(F)cc1F` (stereo not drawn) [Compound 32] was tested. Which EC50 did it give?
Its EC50 is under 50 nM.

`CC(C)(C)OC(=O)N1CC2COCC(C1)C2Oc1ncnc2c1CCN2c1ccc(F)cc1F` (stereo not drawn) [Compound 10] was tested. Which EC50 did it give?
Its EC50 is 100 to 500 nM.

With `CC1(OC(=O)N2CC3COCC(C2)C3Oc2ncnc3c2cnn3-c2ccc(C#N)cc2Cl)CC1` (stereo not drawn) [Compound 40] as the molecule, how does the EC50 read?
Its EC50 is under 50 nM.

`Cc1c(F)ccc(-n2ccc3c(OC4C5COCC4CN(C(=O)OC(C)(C)C)C5)ncnc32)c1F` (stereo not drawn) [Compound 16] was tested. Which EC50 did it give?
Its EC50 is under 50 nM.

With `CC1(OC(=O)N2CC3COCC(C2)C3Oc2ncnc3c2ccn3-c2ccc(C#N)cc2F)CC1` (stereo not drawn) [Compound 5] as the molecule, how does the EC50 read?
Its EC50 is under 50 nM.

How did the EC50 turn out when `CC1(OC(=O)N2CC3COCC(C2)C3Oc2ncnc3c2nnn3-c2ccc(C#N)cc2Cl)CC1` (stereo not drawn) [Compound 52] was run?
The EC50 was 50 to 100 nM.

How did the EC50 turn out when `CC(C)(C)OC(=O)N1CC2COCC(C1)C2Oc1ncnc2c1ccn2-c1ccc(C#N)cc1F` (stereo not drawn) [Compound 1] was run?
The EC50 was under 50 nM.

With `CC1(OC(=O)N2CC3COCC(C2)C3Oc2ncnc3c2ncn3-c2ccc(C#N)cc2F)CC1` (stereo not drawn) [Compound 35] as the molecule, how does the EC50 read?
Its EC50 is 50 to 100 nM.

How did the EC50 turn out when `CC(C)(C)OC(=O)N1CC2COCC(C1)C2Oc1ncnc2c1ccn2-c1c(F)cc(F)cc1F` (stereo not drawn) [Compound 33] was run?
The EC50 was under 50 nM.

How did the EC50 turn out when `CC1OC(C)C2CN(C(=O)OC3(C)CC3)CC1C2Oc1ncnc2c1cnn2-c1ccc(C#N)cc1F` (stereo not drawn) [Compound 39] was run?
The EC50 was 100 to 500 nM.

`CC(C)OC(=O)N1CC2COCC(C1)C2Oc1ncnc2c1ccn2-c1ccc(C#N)cc1F` (stereo not drawn) [Compound 3] was tested. Which EC50 did it give?
The EC50 was under 50 nM.

Which EC50 does the source give for `CC(C)(C)OC(=O)N1CC2COCC(C1)C2Oc1ncnc2c1OCCN2c1ccc(C#N)cc1F` (stereo not drawn) [Compound 53] here?
Its EC50 is 100 to 500 nM.

For `Cc1nc2c(OC3C4COCC3CN(C(=O)OC3(C)CC3)C4)ncnc2n1-c1ccc(C#N)cc1F` (stereo not drawn) [Compound 42], which EC50 is on record?
The EC50 was 500 to 1000 nM.

`CC1(OC(=O)N2CC3COCC(C2)C3Oc2ncnc3c2cnn3-c2ccc(F)cc2F)CC1` (stereo not drawn) [Compound 45] was tested. Which EC50 did it give?
The EC50 was 100 to 500 nM.

`Cn1cc(-c2ccc(-n3ncc4c(OC5C6COCC5CN(C(=O)OC5(C)CC5)C6)ncnc43)c(F)c2)cn1` (stereo not drawn) [Compound 48] was tested. Which EC50 did it give?
The EC50 was 100 to 500 nM.

For `CC(C)(C)OC(=O)N1CC2COCC(C1)C2Oc1ncnc2c1ccn2-c1c(F)cccc1F` (stereo not drawn) [Compound 14], which EC50 is on record?
The EC50 was under 50 nM.

`CC1(OC(=O)N2CC3COCC(C2)C3Oc2ncnc3c2cnn3-c2ccc(-c3ncco3)cc2F)CC1` (stereo not drawn) [Compound 49] was tested. Which EC50 did it give?
Its EC50 is 100 to 500 nM.

With `CC(C)c1noc(N2CC3COCC(C2)C3Oc2ncnc3c2ccn3-c2ccc(F)cc2F)n1` (stereo not drawn) [Compound 29] as the molecule, how does the EC50 read?
The EC50 was 100 to 500 nM.

Which EC50 does the source give for `CC(C)(C)OC(=O)N1CC2COCC(C1)C2Oc1ncnc2c1nnn2-c1ccc(C#N)cc1Cl` (stereo not drawn) [Compound 51] here?
The EC50 was 100 to 500 nM.

With `CC(C)(C)OC(=O)N1CC2COCC(C1)C2Oc1ncnc2c1ccn2-c1ccc(S(C)(=O)=O)cc1F` (stereo not drawn) [Compound 26] as the molecule, how does the EC50 read?
Its EC50 is 100 to 500 nM.

With `CC1(OC(=O)N2CC3COCC(C2)C3Oc2ncnc3c2cnn3-c2ccc(C#N)cc2F)CC1` (stereo not drawn) [Compound 36] as the molecule, how does the EC50 read?
The EC50 was under 50 nM.

`CC1(OC(=O)N2CC3COCC(C2)C3Oc2ncnc3c2ccn3-c2ccc(S(C)(=O)=O)cc2F)CC1` (stereo not drawn) [Compound 28] was tested. Which EC50 did it give?
The EC50 was 100 to 500 nM.

For `CC1(OC(=O)N2CC3COCC(C2)C3Oc2ncnc3c2ccn3-c2c(F)cccc2F)CC1` (stereo not drawn) [Compound 19], which EC50 is on record?
The EC50 was under 50 nM.

For `CC1(OC(=O)N2CC3COCC(C2)C3Oc2ncnc3c2ncn3-c2ccc(Br)cc2F)CC1` (stereo not drawn) [Compound 47], which EC50 is on record?
Its EC50 is 100 to 500 nM.

How did the EC50 turn out when `CC(C)(C)OC(=O)N1CC2COCC(C1)C2Oc1ncnc2c1ccn2-c1ccc(S(C)(=O)=O)cc1F` (stereo not drawn) [Compound 25] was run?
Its EC50 is 100 to 500 nM.

For `Fc1ccc(N2CCc3c(OC4C5COCC4CN(c4ncc(Cl)cn4)C5)ncnc32)c(F)c1` (stereo not drawn) [Compound 13], which EC50 is on record?
Its EC50 is 100 to 500 nM.

With `Cc1cccc(-n2ccc3c(OC4C5COCC4CN(C(=O)OC4(C)CC4)C5)ncnc32)c1C#N` (stereo not drawn) [Compound 24] as the molecule, how does the EC50 read?
Its EC50 is 50 to 100 nM.

Which EC50 does the source give for `Fc1cnc(N2CC3COCC(C2)C3Oc2ncnc3c2ccn3-c2ccc(F)cc2F)nc1` (stereo not drawn) [Compound 12] here?
The EC50 was 50 to 100 nM.

With `CC(C)OC(=O)N1CC2COCC(C1)C2Oc1ncnc2c1ncn2-c1ccc(C#N)cc1Cl` (stereo not drawn) [Compound 44] as the molecule, how does the EC50 read?
Its EC50 is 100 to 500 nM.

Which EC50 does the source give for `CC1OC(C)C2CN(C(=O)OC3(C)CC3)CC1C2Oc1ncnc2c1cnn2-c1ccc(C#N)cc1F` (stereo not drawn) [Compound 38] here?
Its EC50 is under 50 nM.

`CC(C)OC(=O)N1CC2COCC(C1)C2Oc1ncnc2c1OCCN2c1ccc(C#N)cc1F` (stereo not drawn) [Compound 55] was tested. Which EC50 did it give?
Its EC50 is 100 to 500 nM.

Which EC50 does the source give for `Cc1cccc(-n2ccc3c(OC4C5COCC4CN(C(=O)OC(C)(C)C)C5)ncnc32)c1C#N` (stereo not drawn) [Compound 23] here?
The EC50 was 50 to 100 nM.

For `CS(=O)(=O)c1ccc(-n2cnc3c(OC4C5COCC4CN(c4ncc(Cl)cn4)C5)ncnc32)c(F)c1` (stereo not drawn) [Compound 34], which EC50 is on record?
The EC50 was 500 to 1000 nM.

With `CC(C)(C)OC(=O)N1CC2COCC(C1)C2Oc1ncnc2c1ccn2-c1ccc(F)cc1F` (stereo not drawn) [Compound 6] as the molecule, how does the EC50 read?
Its EC50 is under 50 nM.

With `CC1(OC(=O)N2CC3COCC(C2)C3Oc2ncnc3c2OCCN3c2ccc(C#N)cc2F)CC1` (stereo not drawn) [Compound 54] as the molecule, how does the EC50 read?
The EC50 was 100 to 500 nM.

Which EC50 does the source give for `Cc1c(F)ccc(-n2ccc3c(OC4C5COCC4CN(C(=O)OC(C)(C)C)C5)ncnc32)c1C#N` (stereo not drawn) [Compound 20] here?
Its EC50 is 100 to 500 nM.

For `CC1(OC(=O)N2CC3COCC(C2)C3Oc2ncnc3c2ccn3-c2ccc(F)cc2F)CC1` (stereo not drawn) [Compound 8], which EC50 is on record?
Its EC50 is under 50 nM.

How did the EC50 turn out when `CS(=O)(=O)c1ccc(-n2ccc3c(OC4C5COCC4CN(c4ncc(F)cn4)C5)ncnc32)c(F)c1` (stereo not drawn) [Compound 30] was run?
The EC50 was 50 to 100 nM.

`CS(=O)(=O)c1ccc(-n2ccc3c(OC4C5COCC4CN(c4ncc(Cl)cn4)C5)ncnc32)c(F)c1` (stereo not drawn) [Compound 27] was tested. Which EC50 did it give?
The EC50 was under 50 nM.

How did the EC50 turn out when `CC1(OC(=O)N2CC3COCC(C2)C3Oc2ncnc3c2cnn3-c2ccc(C#N)cc2F)CC1` (stereo not drawn) [Compound 37] was run?
The EC50 was under 50 nM.
